Assay results: patent US20110104281A1, “METHOD FOR TREATING PAIN USING A SUBSTITUTED 2-AMINOTETRALIN COMPOUND” (UCB PHARMA GMBH, priority 2006, published 2011)
Read-outs that look alike come from different tables or passages of the source.

Test system: CD-1 (Crl.) derived mice
Details: for Hind paw licking time, % Inhibition: vs vehicle
Excerpt: The mouse formalin test is a chemically-induced sustained pain model with biphasic changes of nociceptive behavior. In mice, the test measures duration of hind paw licking following subplantar injection of formalin. Formalin produces a characteristic biphasic pain response. The early phase reflects acute pain and the late phase the chronic pain in which spinal/supraspinal plasticity of nociception is considered as a molecular basis. […] See, for example, Hunskaar et al., J. Neuroscience Meth. 14:69-76 (1985).
Rotigotine (SPM-962 base) was evaluated for possible analgesic activity in the mouse formalin test in which hind paw licking time was measured at 5-minute intervals for 30 minutes following subplantar injection of formalin.
Rotigotine was administered intraperitoneally to 10 CD-1 (Crl.) derived mice weighing 22±2 g (provided by BioLasco Taiwan under Charles River Laboratories Technology License). Rotigotine (3, 1 and 0.3 mg/kg) in a vehicle (5 ml/kg) comprising 0.2% HPMC (hydroxypropylmethylcellulose) and 0.9% NaCl, and vehicle (5 ml/kg) alone as a control, were each administered by intraperitoneal (i.p.) injection 30 minutes before subplantar injection of formalin (0.02 ml, 2% solution). Reduction of formalin-induced hind paw licking time was recorded at 5-minute intervals during the 0 to 30 minute period after formalin injection. A reduction of licking time of ≧50% indicates significant analgesic and anti-phlogistic activity. Statistical analysis was performed using one-way ANOVA (analysis of variance) and Dunnett's test to compare rotigotine-treated and vehicle control groups. Observation of animals for acute toxic symptoms and autonomic effects was performed before formalin injection.

[1] = rotigotine 0.3 mg/kg i.p., 0-5 min after formalin
[2] = rotigotine 0.3 mg/kg i.p., 5-10 min after formalin
[3] = rotigotine 0.3 mg/kg i.p., 10-15 min after formalin
[4] = rotigotine 0.3 mg/kg i.p., 15-20 min after formalin
[5] = rotigotine 0.3 mg/kg i.p., 20-25 min after formalin
[6] = rotigotine 0.3 mg/kg i.p., 25-30 min after formalin
[7] = rotigotine 1 mg/kg i.p., 0-5 min after formalin
[8] = rotigotine 1 mg/kg i.p., 5-10 min after formalin
[9] = rotigotine 1 mg/kg i.p., 10-15 min after formalin
[10] = rotigotine 1 mg/kg i.p., 15-20 min after formalin
[11] = rotigotine 1 mg/kg i.p., 20-25 min after formalin
[12] = rotigotine 1 mg/kg i.p., 25-30 min after formalin
[13] = rotigotine 3 mg/kg i.p., 5-10 min after formalin
[14] = rotigotine 3 mg/kg i.p., 10-15 min after formalin
[15] = rotigotine 3 mg/kg i.p., 15-20 min after formalin
[16] = rotigotine 3 mg/kg i.p., 20-25 min after formalin
[17] = rotigotine 3 mg/kg i.p., 25-30 min after formalin

In the case of `CCCN(CCc1cccs1)[C@H]1CCc2c(O)cccc2C1` [Rotigotine, 5,6,7,8-tetrahydro-6-[propyl-[2-(2-thienyl)ethyl]amino]-1-naphthol], the “Reduction in hind paw licking time” value (1 mg/kg and 3 mg/kg, 10-15, 20-25 and 25-30 minute intervals) is reported as “Significant reduction”, the “Reduction in formalin-induced hind paw licking time over the vehicle control” value (all three doses, at least at the 0-5 and 15-20 minute intervals) is reported as “Significant reduction” and the “Analgesic activity in the mouse formalin test” value (early and late phase, 0.3, 1 and 3 mg/kg i.p.) is reported as “significant dose-dependent analgesic activity”. For the same compound, the “Central or autonomic signs (acute toxic symptoms and autonomic effects)” value (mice, 0.3-3 mg/kg i.p., observed before formalin injection) was “No significant central or autonomic signs were observed”, the “Hind paw licking time, Average” value [1] was 47.9 s and the “Hind paw licking time, % Inhibition” value [1] was “(41) %”. For the same compound, the “Hind paw licking time, Average” value [2] was 0.0 s, the “Hind paw licking time, % Inhibition” value [2] was “(100) %” and the “Hind paw licking time, Average” value [3] was 8.0 s. The “Hind paw licking time, % Inhibition” value [3] was “(67) %”, the “Hind paw licking time, Average” value [4] was 37.3 s and the “Hind paw licking time, % Inhibition” value [4] was “(56) %”. For the same compound, the “Hind paw licking time, Average” value [5] was 57.2 s, the “Hind paw licking time, % Inhibition” value [5] was “(25) %” and the “Hind paw licking time, Average” value [6] was 54.8 s. For the same compound, the “Hind paw licking time, % Inhibition” value [6] was “(16) %”, the “Hind paw licking time, Average” value [7] was 41.0 s and the “Hind paw licking time, % Inhibition” value [7] was “(50) %”. The “Hind paw licking time, Average” value [8] was 0 s, the “Hind paw licking time, % Inhibition” value [8] was “(100) %” and the “Hind paw licking time, Average” value [9] was 0.2 s. The “Hind paw licking time, % Inhibition” value [9] was “(99) %”, the “Hind paw licking time, Average” value [10] was 10.3 s and the “Hind paw licking time, % Inhibition” value [10] was “(88) %”. For the same compound, the “Hind paw licking time, Average” value [11] was 16.3 s, the “Hind paw licking time, % Inhibition” value [11] was “(79) %” and the “Hind paw licking time, Average” value [12] was 33.5 s. The “Hind paw licking time, % Inhibition” value [12] was “(49) %”, the “Hind paw licking time, Average” value (rotigotine 3 mg/kg i.p. 30 min before formalin, 0-5 min after formalin) was 35.6 s and the “Hind paw licking time, % Inhibition” value (rotigotine 3 mg/kg i.p., 0-5 min after formalin) was “(56) %”. The “Hind paw licking time, Average” value [13] was 0 s, the “Hind paw licking time, % Inhibition” value [13] was “(100) %” and the “Hind paw licking time, Average” value [14] was 6 s. The “Hind paw licking time, % Inhibition” value [14] was “(76) %”, the “Hind paw licking time, Average” value [15] was 15.9 s and the “Hind paw licking time, % Inhibition” value [15] was “(81) %”. For the same compound, the “Hind paw licking time, Average” value [16] was 7.8 s, the “Hind paw licking time, % Inhibition” value [16] was “(90) %” and the “Hind paw licking time, Average” value [17] was 5.5 s. The “Hind paw licking time, % Inhibition” value [17] was “(92) %”.
